Results published in patent US5068247A, “2-aminopentanoic acid compounds and their use as immunosuppressants” (priority 1989, dated 1991).
Like-named read-outs stand apart in the source and are kept apart here.

Columns and labels:
Format in all cases: cell-based
[1] = test system: IL-2 production in PHA-stimulated mouse spleen cells; test: suppression of IL-2 production in PHA-stimulated mouse spleen cells
Method: (§1) The suppression of IL-2 and IL-3 production in the mitogen-stimulated mouse spleen cells was examined as follows:
(§2) The spleen was resected from 5- to 8-week-old male C3H/HeN mice, and a single cell suspension of spleen cells was prepared by using the RPMI1640 culture medium. After hemolytic treatment, the concentration of the suspension was adjusted to 10^7 cells/ml by using the RPMI1640 culture medium supplemented with 20% FCS, to which 10 μg/ml of phytohemagglutinin (PHA) was added as mitogen. […] After termination of culture, the supernatant was collected and used as the culture supernatant of PHA-stimulated mouse spleen cells.
The IL-2 activity in the culture supernatant of PHA-stimulated mouse spleen cells was assayed as follows:
IL-2 dependent mouse cell line CTLL-2 cells were suspended in the RPMI1640 culture medium supplemented with 30% FCS to the concentration of 2×10^5 cells/ml. One hundred μl of the cell suspension and 100 μl of the two-fold serial dilution of the culture supernatant of PHA-stimulated mouse spleen cells were added to a 96-well flat-bottomed microtest plate. […] The IL-2 activity is expressed in U/ml as the dilution at which the absorbancy measured by MTT method was 50% of the maximum.

[2] = test system: CTLL-2 cells; test: suppression of proliferation of IL-2-dependent mouse cell line CTLL-2 induced by IL-2; details: IL-2 50 U/ml; for inhibition at 0.001 µg/mL / inhibition at 0.01 µg/mL / inhibition at 0.1 µg/mL / inhibition at 1 µg/mL: Mus musculus, CTLL-2, 68 h; for inhibition at 0.001 µg/mL: read-out: Suppression, 0.001 μg/ml; for inhibition at 0.01 µg/mL: read-out: Suppression, 0.01 μg/ml; for inhibition at 0.1 µg/mL: read-out: Suppression, 0.1 μg/ml; for inhibition at 1 µg/mL: read-out: Suppression, 1 μg/ml
Method: IL-2-dependent mouse cell line CTLL-2 cells were suspended in the RPMI1640 culture medium supplemented with 30% FCS to the concentration of 4×10^5 cells/ml. Fifty μl of the cell suspension, 50 μl of 200 U/ml recombinant human IL-2 (rhIL-2) and 100 μl of the test substance were added to a 96-well flat-bottomed microtest plate. […] The percent suppression (%) was calculated by the following formula. [formula]

[3] = test system: IL-3 production in PHA-stimulated mouse spleen cells; test: suppression of IL-3 production in PHA-stimulated mouse spleen cells
Method: as §1, §2
The IL-3 activity was assayed as follows:
IL-3-dependent mouse cell line FDC-P2 cells were suspended in the RPMI1640 culture medium supplemented with 10% FCS to the concentration of 2×10^5 cells/ml. One hundred μl of the cell suspension and 100 μl of the two-fold serial dilution of the culture supernatant of PHA-stimulated mouse spleen cells described above were added to a 96-well flat-bottomed microtest plate. […] The IL-3 activity is expressed in U/ml as the dilution at which the absorbancy measured by MTT method was 50% of the maximum.

[4] = test system: human allogenic MLR (human peripheral blood lymphocytes); test: human allogenic MLR-suppressive activity, 3H-thymidine uptake; details: for inhibition at 0.001 µg/mL: read-out: Suppression, 0.001 μg/ml; for inhibition at 0.01 µg/mL: read-out: Suppression, 0.01 μg/ml; for inhibition at 0.1 µg/mL: read-out: Suppression, 0.1 μg/ml; for inhibition at 1 µg/mL: read-out: Suppression, 1 μg/ml
Method: The human allogenic MLR-suppressive activity was assayed as follows:
Human peripheral blood lymphocytes obtained by Ficoll-Paque density gradient centrifugation of normal human peripheral blood were suspended in the RPMI1640 culture medium supplemented with 10% FCS, placed in a plastic dish, and cultured in an atmosphere of 5% carbon dioxide and 95% air at 37° C. for 2 hours. After termination of culture, the supernatant after gentle pipetting was collected and centrifuged (1000 rpm, for 5 minutes) to obtain plastic-nonadherent cells. The plastic-nonadherent cells were allowed to pass through a nylon-wool column to give nylon-nonadherent cells, and the concentration of the cell suspension was adjusted to 4×10^6 cells/ml by using the RPMI1640 culture medium supplemented with 10% FCS, and used as the responder cell suspension.
The plastic-adherent cells were removed from the plastic dish by vigorous pipetting after addition of phosphate buffered saline (PBS) supplemented with 5% FCS and 0.02% disodium ethylenediaminetetraacetic acid (EDTA). The plastic-adherent cells were treated with 40 μg/ml of mitomycin C at 37° C. for 60 minutes, washed three times, and suspended to the concentration of 4×10^6 cells/ml in the RPMI1640 culture medium supplemented with 10% FCS. The resultant suspension was used as the stimulator cell suspension.
After termination of culture, 37 KBq/well of ^3 H-thymidine was added, and after 18 hours of culture, the cells were harvested by a cell-harvester. The radioactivity incorporated into the cells was measured by a liquid scintillation counter, which was used as an index of blastogenic response of lymphocytes in human allogenic MLR. The suppression of human allogenic MLR was evaluated by calculating the percent suppression by the following formula. [formula]

[5] = Mus musculus, 24 h, read-out: Suppression
[6] = Homo sapiens, Lymphocyte, Donor A/Donor B
[7] = Homo sapiens, Lymphocyte, Donor C/Donor D

CCCCCCCCCCCCCCCC[C@@H](O)[C@H](O)[C@@](N)(CO)C(=O)O [Example 2]
IL-2 activity ([1]; 0.001 μg/ml): 12.1 U/ml
IL-2 activity ([1]; 0.01 μg/ml): 7.0 U/ml
IL-2 activity ([1]; 0.1 μg/ml): 6.1 U/ml
IL-2 activity ([1]; 1 μg/ml): 3.7 U/ml
inhibition at 0.001 µg/mL [1, 5]: 0%
inhibition at 0.01 µg/mL [1, 5]: 42.1%
inhibition at 0.1 µg/mL [1, 5]: 49.6%
inhibition at 1 µg/mL [1, 5]: 69.4%
optical density (OD570) ([2]; 0.001 μg/ml, Table 6A): 0.555
optical density (OD570) ([2]; 0.001 μg/ml, Table 6B): 0.898
optical density (OD570) ([2]; 0.01 μg/ml, Table 6A): 0.543
optical density (OD570) ([2]; 0.01 μg/ml, Table 6B): 0.880
optical density (OD570) ([2]; 0.1 μg/ml, Table 6A): 0.558
optical density (OD570) ([2]; 0.1 μg/ml, Table 6B): 0.774
optical density (OD570) ([2]; 1 μg/ml, Table 6A): 0.161
optical density (OD570) ([2]; 1 μg/ml, Table 6B): 0.508
inhibition at 0.001 µg/mL ([2]; Table 6A): 5.3%
inhibition at 0.001 µg/mL ([2]; Table 6B): 6.7%
inhibition at 0.01 µg/mL ([2]; Table 6A): 7.4%
inhibition at 0.01 µg/mL ([2]; Table 6B): 8.7%
inhibition at 0.1 µg/mL ([2]; Table 6A): 4.8%
inhibition at 0.1 µg/mL ([2]; Table 6B): 20%
inhibition at 1 µg/mL ([2]; Table 6A): 72.6%
inhibition at 1 µg/mL ([2]; Table 6B): 48.4%
IL-3 activity ([3]; 0.001 μg/ml): 26.0 U/ml
IL-3 activity ([3]; 0.01 μg/ml): 13.9 U/ml
IL-3 activity ([3]; 0.1 μg/ml): 11.3 U/ml
IL-3 activity ([3]; 1 μg/ml): 7.5 U/ml
inhibition at 0.001 µg/mL [3, 5]: 29.3%
inhibition at 0.01 µg/mL [3, 5]: 62.2%
inhibition at 0.1 µg/mL [3, 5]: 69.3%
inhibition at 1 µg/mL [3, 5]: 79.6%
3H-thymidine uptake ([4]; 0.00001 μg/ml, Donor C/Donor D): 13909 cpm
3H-thymidine uptake ([4]; 0.0001 μg/ml, Donor C/Donor D): 15259 cpm
3H-thymidine uptake ([4]; 0.001 μg/ml, Donor A/Donor B): 9258 cpm
3H-thymidine uptake ([4]; 0.001 μg/ml, Donor C/Donor D): 15503 cpm
3H-thymidine uptake ([4]; 0.01 μg/ml, Donor A/Donor B): 8119 cpm
3H-thymidine uptake ([4]; 0.01 μg/ml, Donor C/Donor D): 11263 cpm
3H-thymidine uptake ([4]; 0.1 μg/ml, Donor A/Donor B): 4624 cpm
3H-thymidine uptake ([4]; 0.1 μg/ml, Donor C/Donor D): 7300 cpm
3H-thymidine uptake ([4]; 1 μg/ml, Donor A/Donor B): 7130 cpm
3H-thymidine uptake ([4]; 1 μg/ml, Donor C/Donor D): 6583 cpm
suppressive activity in human allogenic MLR (in words) ([4]; 1 to 0.0001 μg/ml): exhibited suppressive activity in human allogenic MLR in a concentration-dependent manner
inhibition at 10 pg/mL ([4]; Homo sapiens, Lymphocyte, read-out: Suppression, 0.00001 μg/ml, Donor C/Donor D): 31.4%
inhibition at 0.0001 µg/mL ([4]; Homo sapiens, Lymphocyte, read-out: Suppression, 0.0001 μg/ml, Donor C/Donor D): 24.5%
inhibition at 0.001 µg/mL [4, 6]: 23.6%
inhibition at 0.001 µg/mL [4, 7]: 23.2%
inhibition at 0.01 µg/mL [4, 6]: 33.8%
inhibition at 0.01 µg/mL [4, 7]: 44.9%
inhibition at 0.1 µg/mL [4, 6]: 65.2%
inhibition at 0.1 µg/mL [4, 7]: 65%
inhibition at 1 µg/mL [4, 6]: 42.7%
inhibition at 1 µg/mL [4, 7]: 68.7%
